Results on 16 molecules are retold here after US11613527B2, “Enzyme inhibitors” (KalVista Pharmaceuticals Limited, priority 2019, dated 2023).

In general, solubility refers to how much of the substance goes into solution per volume. One may read the IC50 as the midpoint of a concentration-inhibition curve.

Converted amounts (≈) assume the structure as drawn. Some results are limits rather than exact numbers.

Data set [1] in a line: Solubility after 24 hrs in Fasted State Simulated Intestinal Fluid (FaSSIF). Format: physicochemical. The following applies: 24 hrs at 37° C., nominal concentration 1 mg/mL (as free base); for solubility at 24 h: Fasted State Simulated Intestinal Fluid (FaSSIF), thermodynamic from solid. The protocol: Selected compounds were further screened for solubility in Fasted State Simulated Intestinal Fluid (FaSSIF).
Approximately 1 mg of test compound is accurately weighed into a 2 mL vial. Volumes of the FaSSIF solution (pre-heated to 37° C.) were added to a vial to give a nominal concentration of 1 mg/mL (as free base). The FaSSIF solution was prepared on the day of use. The samples were vortexed before being placed in a Titramax 1000 shaker for 24 hrs at 37° C. and approximately 500 rpm. The samples were transferred to eppendorf tubes and centrifuged at 15,000 g (r.c.f.) for 10 min at 37° C. and analysed for concentration of test compound by LCMS.

For another data set, the target named is Human plasma kallikrein (Homo sapiens (Human), UniProt P03952). Nature of the data set: Determination of the IC50 for plasma kallikrein (fluorogenic substrate H-DPro-Phe-Arg-AFC). The following applies: class symbols A-D, read-out: IC50 (human PKal). Format: biochemical. The method, boiled down: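 IC50 values come from initial rates, monitored as the change in absorbance at 410 nm, of residual enzyme activity. Test compound was present at various concentrations with the fluorogenic substrate H-DPro-Phe-Arg-AFC, and the reaction was run at 25° C.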
Human plasma kallikrein, sequence (P03952 391-638): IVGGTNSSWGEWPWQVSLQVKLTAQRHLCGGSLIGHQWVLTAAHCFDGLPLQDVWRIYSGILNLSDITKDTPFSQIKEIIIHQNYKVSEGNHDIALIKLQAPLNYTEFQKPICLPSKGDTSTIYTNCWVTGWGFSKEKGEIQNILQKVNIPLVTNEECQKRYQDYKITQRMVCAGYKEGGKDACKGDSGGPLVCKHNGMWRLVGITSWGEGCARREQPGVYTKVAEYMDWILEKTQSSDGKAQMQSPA
Human plasma kallikrein, sequence (P03952 20-390 partner): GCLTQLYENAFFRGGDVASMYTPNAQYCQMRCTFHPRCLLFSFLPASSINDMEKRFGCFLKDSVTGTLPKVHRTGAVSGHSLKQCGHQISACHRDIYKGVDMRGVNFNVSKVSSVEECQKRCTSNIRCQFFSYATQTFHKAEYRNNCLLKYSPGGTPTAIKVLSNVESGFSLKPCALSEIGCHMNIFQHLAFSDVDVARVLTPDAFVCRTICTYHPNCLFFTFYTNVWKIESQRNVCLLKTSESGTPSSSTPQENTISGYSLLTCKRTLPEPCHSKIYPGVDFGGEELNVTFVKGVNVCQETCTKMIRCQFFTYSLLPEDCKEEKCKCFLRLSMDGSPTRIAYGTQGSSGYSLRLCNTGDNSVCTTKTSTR

For the next data set, the target named is Human KLK1 (Homo sapiens (Human), UniProt P06870). Briefly: Determination of the IC50 for KLK1 (fluorogenic substrate H-DVal-Leu-Arg-AFC). It counts as biochemical. The essentials: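 Inhibition read as initial rate via optical absorbance change at 410 nm, giving IC50. Reactions combined human KLK1, the substrate H-DVal-Leu-Arg-AFC and varied compound concentrations at 25° C.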
Human KLK1, sequence (P06870 25-262): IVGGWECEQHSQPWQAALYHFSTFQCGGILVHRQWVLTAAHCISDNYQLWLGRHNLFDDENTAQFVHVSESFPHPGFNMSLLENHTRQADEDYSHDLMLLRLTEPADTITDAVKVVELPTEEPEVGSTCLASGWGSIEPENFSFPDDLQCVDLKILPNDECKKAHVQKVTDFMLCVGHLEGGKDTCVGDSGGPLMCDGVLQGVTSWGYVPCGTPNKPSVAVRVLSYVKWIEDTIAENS

A further data set has as its target Human FXIa (Homo sapiens (Human), UniProt P03951). Briefly: Determination of the % inhibition for FXIa (fluorogenic substrate Z-Gly-Pro-Arg-AFC; 40 μM or IC50). Format: biochemical. The method, boiled down: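 Inhibition measured from initial reaction rate, followed as absorbance change at 410 nm, with substrate Z-Gly-Pro-Arg-AFC at 25 °C. Compound tested at a single 40 μM dose for percent inhibition, or across several concentrations to derive IC50 against human FXIa.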

Human FXIa, sequence (P03951 388-625): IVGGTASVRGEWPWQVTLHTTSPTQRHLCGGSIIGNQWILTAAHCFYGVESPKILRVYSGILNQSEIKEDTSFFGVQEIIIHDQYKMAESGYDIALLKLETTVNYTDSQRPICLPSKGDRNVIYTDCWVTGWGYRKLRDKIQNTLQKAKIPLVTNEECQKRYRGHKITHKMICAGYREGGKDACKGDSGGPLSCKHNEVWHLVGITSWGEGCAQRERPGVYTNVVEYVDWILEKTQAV
Human FXIa, sequence (P03951 19-387 partner): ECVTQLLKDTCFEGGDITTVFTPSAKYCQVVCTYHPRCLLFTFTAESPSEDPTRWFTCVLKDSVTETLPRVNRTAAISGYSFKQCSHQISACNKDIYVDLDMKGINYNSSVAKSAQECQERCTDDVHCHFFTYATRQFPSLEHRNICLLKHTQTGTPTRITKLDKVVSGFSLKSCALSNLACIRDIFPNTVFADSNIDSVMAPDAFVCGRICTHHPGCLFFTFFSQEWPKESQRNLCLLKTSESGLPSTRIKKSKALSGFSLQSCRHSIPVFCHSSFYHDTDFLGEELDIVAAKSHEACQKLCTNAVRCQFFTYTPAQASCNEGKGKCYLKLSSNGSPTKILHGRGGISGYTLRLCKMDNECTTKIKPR

Turning to `COCc1nn(Cc2cnc(N3CCCC3)nc2)cc1C(=O)NCc1c(-n2ccnn2)ccc(OC)c1F` [RC5, N-{[2-fluoro-3-methoxy-6-(1,2,3-triazol-1-yl)phenyl]methyl}-3-(methoxymethyl)-1-{[2-(pyrrolidin-1-yl)pyrimidin-5-yl]methyl}pyrazole-4-carboxamide, reference compound], the concentration in solution in data set [1] (solubility at 24 h) came to 20 µg/mL (≈ 38.3 µM).

As for `[2H]C([2H])([2H])N1CCc2ccc(Cn3cc(C(=O)NCc4c(-n5cc(C)nn5)ccc(OC)c4F)c(COC)n3)cc2C1` [Example 119, N-{[2-fluoro-3-methoxy-6-(4-methyl-1,2,3-triazol-1-yl)phenyl]methyl}-3-(methoxymethyl)-1-{[2-(^2H3)methyl-3,4-dihydro-1H-isoquinolin-7-yl]methyl}pyrazole-4-carboxamide], the “FASSIF Solubility 24 hrs” value in data set [1] was 960 µg/mL.

`COCc1nn(Cc2cnc(N3CCCC3)nc2)cc1C(=O)NCc1c(-n2cc(C)nn2)ccc(OC)c1F` [RC6, N-{[2-fluoro-3-methoxy-6-(4-methyl-1,2,3-triazol-1-yl)phenyl]methyl}-3-(methoxymethyl)-1-{[2-(pyrrolidin-1-yl)pyrimidin-5-yl]methyl}pyrazole-4-carboxamide, reference compound] came in with a solubility at 24 h in data set [1] of 100 µg/mL (≈ 187 µM).

For the molecule `COCc1nn(Cc2cnc3c(c2)CN(C(C)C)CC3)cc1C(=O)NCc1c(-n2cc(C)nn2)ccc(OC)c1F` [Example 132, N-{[2-fluoro-3-methoxy-6-(4-methyl-1H-1,2,3-triazol-1-yl)phenyl]methyl}-3-(methoxymethyl)-1-{[6-(propan-2-yl)-5,6,7,8-tetrahydro-1,6-naphthyridin-3-yl]methyl}-1H-pyrazole-4-carboxamide], the IC50 on Human plasma kallikrein was 0.01 to 0.03 µM. The same molecule came in with a solubility at 24 h in data set [1] of 560 µg/mL (≈ 995 µM).

As for `COCc1nn(Cc2ccc3c(c2)CCN(C)CC3)cc1C(=O)NCc1c(-n2cc(C)nn2)ccc(OC)c1F` [Example 121, N-{[2-fluoro-3-methoxy-6-(4-methyl-1,2,3-triazol-1-yl)phenyl]methyl}-3-(methoxymethyl)-1-[(3-methyl-1,2,4,5-tetrahydro-3-benzazepin-7-yl)methyl]pyrazole-4-carboxamide], the IC50 on Human plasma kallikrein was less than 0.01 µM; against Human KLK1, greater than 40 µM; at Human FXIa, greater than 40 µM.

Consider `COc1ccc(-n2cc(C)nn2)c(CNC(=O)c2cn(Cc3cc4n(n3)C3(CC3)CN(C)C4)nc2C(F)F)c1F` [Example 82], for which the half-inhibitory concentration (IC50) on Human plasma kallikrein is less than 0.01 µM; on Human KLK1 it was greater than 40 µM; against Human FXIa, 18.2 µM.

Take `COCc1nn(Cc2ccc3c(c2)CN(C)CC3)cc1C(=O)NCc1c(-n2cnc(C(F)F)n2)ccc(C(C)(F)F)c1F` [Example 157, N-{[3-(1,1-difluoroethyl)-6-[3-(difluoromethyl)-1,2,4-triazol-1-yl]-2-fluorophenyl]methyl}-3-(methoxymethyl)-1-[(2-methyl-3,4-dihydro-1H-isoquinolin-7-yl)methyl]pyrazole-4-carboxamide]: the IC50 was 0.1 to 1 µM at Human plasma kallikrein, greater than 40 µM against Human KLK1 and greater than 40 µM against Human FXIa.

Regarding `COCc1nn(Cc2ccc3c(c2)CN(C)CC3)cc1C(=O)NCc1c(-n2nc(C)nc2C)ccc(OC)c1F` [Example 29, N-{[6-(dimethyl-1,2,4-triazol-1-yl)-2-fluoro-3-methoxyphenyl]methyl}-3-(methoxymethyl)-1-[(2-methyl-3,4-dihydro-1H-isoquinolin-7-yl)methyl]pyrazole-4-carboxamide], the results for the IC50 on Human plasma kallikrein, against Human KLK1 and against Human FXIa were less than 0.01 µM, greater than 40 µM and greater than 40 µM, respectively.

In the case of `COc1ccc(-n2cc(C)nn2)c(CNC(=O)c2cn(Cc3cn4c(n3)CN(C)CC4)nc2C(F)(F)F)c1F` [Example 61, N-{[2-fluoro-3-methoxy-6-(4-methyl-1,2,3-triazol-1-yl)phenyl]methyl}-1-({7-methyl-5H,6H,8H-imidazo[1,2-a]pyrazin-2-yl}methyl)-3-(trifluoromethyl)pyrazole-4-carboxamide], the IC50 on Human plasma kallikrein is 0.03 to 0.1 µM; at Human KLK1, greater than 40 µM; against Human FXIa, greater than 40 µM.

Consider `COCc1nn(Cc2ccc3c(c2)CCN(C2CC2)C3)cc1C(=O)NCc1c(-n2cnc(C(F)(F)F)n2)ccc(OC)c1F` [Example 48, 1-[(2-cyclopropyl-3,4-dihydro-1H-isoquinolin-6-yl)methyl]-N-({2-fluoro-3-methoxy-6-[3-(trifluoromethyl)-1,2,4-triazol-1-yl]phenyl}methyl)-3-(methoxymethyl)pyrazole-4-carboxamide], for which the half-inhibitory concentration (IC50) at Human plasma kallikrein is 0.03 to 0.1 µM; against Human KLK1, greater than 40 µM; at Human FXIa it was greater than 40 µM.

For `COCc1nn(Cc2ccc3c(c2)CN(C)CC3)cc1C(=O)NCc1c(-n2ccc(C3CC3)n2)ccc(OC)c1F` [Example 9, N-{[6-(3-cyclopropylpyrazol-1-yl)-2-fluoro-3-methoxyphenyl]methyl}-3-(methoxymethyl)-1-[(2-methyl-3,4-dihydro-1H-isoquinolin-7-yl)methyl]pyrazole-4-carboxamide], the IC50 on Human plasma kallikrein was 0.03 to 0.1 µM; at Human KLK1, greater than 40 µM; at Human FXIa, greater than 40 µM.

Consider `COCc1nn(Cc2ccc3c(c2)CN(C)CC3)cc1C(=O)NCc1c(-n2ncnc2C)ccc(OC)c1F` [Example 12, N-{[2-fluoro-3-methoxy-6-(5-methyl-1,2,4-triazol-1-yl)phenyl]methyl}-3-(methoxymethyl)-1-[(2-methyl-3,4-dihydro-1H-isoquinolin-7-yl)methyl]pyrazole-4-carboxamide], for which the IC50 at Human plasma kallikrein was less than 0.01 µM; at Human KLK1, greater than 40 µM; against Human FXIa, greater than 40 µM.

As for `COCc1nn(Cc2ccc3ccncc3c2)cc1C(=O)NCc1c(-n2cc(C)nn2)ccc(OC)c1F` [RC1, N-{[2-fluoro-3-methoxy-6-(4-methyl-1,2,3-triazol-1-yl)phenyl]methyl}-1-(isoquinolin-7-ylmethyl)-3-(methoxymethyl)pyrazole-4-carboxamide, reference compound], at Human plasma kallikrein, the concentration for half-maximal inhibition (IC50) lay within 0.1 to 1 µM. This molecule displayed a solubility at 24 h in data set [1] of 40 µg/mL (≈ 77.6 µM).

Take `COCc1nn(Cc2ccc3c(c2)CCN(C)CC3)cc1C(=O)NCc1c(-n2cnc(C(F)(F)F)n2)ccc(OC)c1F` [Example 158, N-({2-fluoro-3-methoxy-6-[3-(trifluoromethyl)-1,2,4-triazol-1-yl]phenyl}methyl)-3-(methoxymethyl)-1-[(3-methyl-1,2,4,5-tetrahydro-3-benzazepin-7-yl)methyl]pyrazole-4-carboxamide]: the IC50 at Human plasma kallikrein is less than 0.01 µM; against Human KLK1, greater than 40 µM; at Human FXIa it was greater than 40 µM.

For `COCc1nn(Cc2ccc3c(c2F)CN(C)CC3)cc1C(=O)NCc1c(-n2cc(C)nn2)ccc(OC)c1F` [Example 107, 1-[(8-fluoro-2-methyl-3,4-dihydro-1H-isoquinolin-7-yl)methyl]-N-{[2-fluoro-3-methoxy-6-(4-methyl-1,2,3-triazol-1-yl)phenyl]methyl}-3-(methoxymethyl)pyrazole-4-carboxamide], the figures for the concentration for half-maximal inhibition (IC50) on Human plasma kallikrein, against Human KLK1 and on Human FXIa were less than 0.01 µM, greater than 40 µM and greater than 40 µM, respectively.

Take `COCc1nn(Cc2ccc3c(c2)C(=O)N(C)CC3)cc1C(=O)NCc1c(-n2cc(C)nn2)ccc(OC)c1F` [Example 73, N-{[2-Fluoro-3-methoxy-6-(4-methyl-1,2,3-triazol-1-yl)phenyl]methyl}-3-(methoxymethyl)-1-[(2-methyl-1-oxo-3,4-dihydroisoquinolin-7-yl)methyl]pyrazole-4-carboxamide]: the results for the IC50 on Human plasma kallikrein, on Human KLK1 and at Human FXIa were 0.03 to 0.1 µM, greater than 40 µM and 11.3 µM, respectively.
